How the values were obtained:
mGluR4 [1] = target: T1, mGluR4 (Homo sapiens, UniProt Q14833); test: mGluR4 potentiation assay (Table I): response to EC20 agonist in presence of compound; format: cell-based; conditions: for EC50: potentiation of mGluR4 agonist response
Target sequence in this assay (Q14833 whole entry): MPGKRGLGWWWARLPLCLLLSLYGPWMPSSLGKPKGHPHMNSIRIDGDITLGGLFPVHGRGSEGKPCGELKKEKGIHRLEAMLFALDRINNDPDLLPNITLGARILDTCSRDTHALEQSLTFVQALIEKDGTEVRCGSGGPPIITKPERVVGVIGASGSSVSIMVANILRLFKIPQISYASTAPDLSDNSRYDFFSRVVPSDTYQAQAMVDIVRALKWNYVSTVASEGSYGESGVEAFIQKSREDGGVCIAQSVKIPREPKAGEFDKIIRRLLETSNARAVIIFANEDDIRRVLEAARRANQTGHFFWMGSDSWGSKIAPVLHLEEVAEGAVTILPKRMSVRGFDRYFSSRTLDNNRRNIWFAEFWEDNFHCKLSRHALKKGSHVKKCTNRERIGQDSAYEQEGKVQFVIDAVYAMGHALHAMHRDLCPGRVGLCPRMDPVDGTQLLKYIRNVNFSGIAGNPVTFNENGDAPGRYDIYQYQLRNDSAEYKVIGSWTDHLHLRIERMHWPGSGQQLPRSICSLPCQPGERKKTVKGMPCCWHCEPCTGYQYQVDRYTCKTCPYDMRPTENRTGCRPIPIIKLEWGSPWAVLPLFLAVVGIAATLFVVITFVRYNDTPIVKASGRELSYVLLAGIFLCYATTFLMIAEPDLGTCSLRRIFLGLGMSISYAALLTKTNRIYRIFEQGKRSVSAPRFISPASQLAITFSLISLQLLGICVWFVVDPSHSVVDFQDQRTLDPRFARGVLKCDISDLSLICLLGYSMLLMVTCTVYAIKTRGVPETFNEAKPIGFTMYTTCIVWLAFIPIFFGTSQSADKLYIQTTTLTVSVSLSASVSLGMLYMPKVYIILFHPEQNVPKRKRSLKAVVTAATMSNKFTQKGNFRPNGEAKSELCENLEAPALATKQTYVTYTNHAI

mGluR4 [2] = target: T1, mGluR4; test: human mGluR4 potentiation in transfected CHO cells, Ca2+-sensitive fluorescent dye; format: cell-based; design: expressed in transfected cells; host or cells: CHO cells; conditions: unit inferred, read-out: hEC50
Target sequence in this assay (Q14833 33-912): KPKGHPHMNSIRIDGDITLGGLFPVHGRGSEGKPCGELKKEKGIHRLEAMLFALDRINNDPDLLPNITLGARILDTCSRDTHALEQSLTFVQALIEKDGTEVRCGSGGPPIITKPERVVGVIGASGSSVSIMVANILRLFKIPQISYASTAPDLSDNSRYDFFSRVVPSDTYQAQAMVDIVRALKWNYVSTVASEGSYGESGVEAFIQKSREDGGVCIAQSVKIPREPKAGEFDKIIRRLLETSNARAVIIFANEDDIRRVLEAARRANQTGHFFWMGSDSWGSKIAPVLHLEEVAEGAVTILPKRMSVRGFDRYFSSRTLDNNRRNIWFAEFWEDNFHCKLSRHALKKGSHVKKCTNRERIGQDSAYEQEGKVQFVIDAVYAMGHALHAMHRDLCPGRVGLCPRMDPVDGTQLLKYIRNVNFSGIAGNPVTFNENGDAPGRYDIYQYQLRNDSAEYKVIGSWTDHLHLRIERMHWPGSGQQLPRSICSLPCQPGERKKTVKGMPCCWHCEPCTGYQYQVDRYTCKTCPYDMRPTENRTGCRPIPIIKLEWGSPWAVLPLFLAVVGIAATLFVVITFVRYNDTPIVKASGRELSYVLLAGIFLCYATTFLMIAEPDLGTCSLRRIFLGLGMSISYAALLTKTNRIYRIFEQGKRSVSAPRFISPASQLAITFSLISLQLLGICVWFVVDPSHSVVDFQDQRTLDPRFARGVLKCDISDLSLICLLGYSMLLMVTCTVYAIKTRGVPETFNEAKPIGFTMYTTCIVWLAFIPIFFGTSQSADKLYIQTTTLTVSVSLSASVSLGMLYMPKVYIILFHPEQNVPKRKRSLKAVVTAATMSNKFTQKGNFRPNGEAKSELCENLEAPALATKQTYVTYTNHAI

| Structure (SMILES) | % Glu Max (mGluR4 [1]; maximum extent of potentiation) | EC50 (mGluR4 [1]) | EC50 (mGluR4 [2]) | Emax (mGluR4 [1]; maximum extent of potentiation, read-out: % Glu Max) |
| --- | --- | --- | --- | --- |
| O=C(Nc1ccn(S(=O)(=O)c2ccc(OC(F)(F)F)cc2)c1)c1ccccn1 [Example 18] | 93% | 546 nM | – | – |
| O=C(Nc1ccn(S(=O)(=O)Cc2cccc(F)c2)c1)c1ccccn1 [Example 24] | 140% | 587 nM | – | – |
| N#Cc1cccc(S(=O)(=O)n2ccc(NC(=O)c3ccccn3)c2)c1 [Example 13] | 104% | 282 nM | – | – |
| O=C(Nc1ccn(S(=O)(=O)c2ccc(F)cc2)c1)c1ccccn1 [Example 19] | 137% | 280 nM | – | – |
| O=C(Nc1ccn(S(=O)(=O)c2cccc(Cl)c2)c1)c1ccccn1 [Example 14] | 139% | 106 nM | – | – |
| O=C(Nc1ccn(S(=O)(=O)c2ccc(C(F)(F)F)cc2)c1)c1ccccn1 [Example 23] | 85% | 413 nM | – | – |
| O=C(Nc1ccn(S(=O)(=O)c2cccc(-c3ccccc3)c2)c1)c1ccccn1 [Example 12] | 122% | 3310 nM | – | – |
| O=C(Nc1ccn(S(=O)(=O)Cc2cc(Cl)cc(Cl)c2)c1)c1ccccn1 [Example 35] | 156% | 3830 nM | – | – |
| CC(C)Cc1ccc(S(=O)(=O)n2ccc(NC(=O)c3ccccn3)c2)cc1 [Example 17] | 30% | 258 nM | – | – |
| Cc1ccc(S(=O)(=O)n2ccc(NC(=O)c3ccccn3)c2)cc1 [Example 20] | 188% | 57 nM | – | – |
| Cc1cccc(CS(=O)(=O)n2ccc(NC(=O)c3ccccn3)c2)c1 [Example 38] | 289% | 1450 nM | – | – |
| O=C(Nc1ccn(S(=O)(=O)C2CCCCC2)c1)c1ccccn1 [Example 22] | 189% | 1940 nM | – | – |
| O=C(Nc1ccn(S(=O)(=O)c2ccc3c(c2)CCO3)c1)c1ccccn1 [Example 145, N-(1-((2,3-dihydrobenzoruran-5-yl)sulfonyl)-1H-pyrrol-3-yl)picolinamide] | – | – | 78.4 nM | – |
| Cc1ccccc1CS(=O)(=O)n1ccc(NC(=O)c2ccccn2)c1 [Example 28] | 164% | 1130 nM | – | – |
| O=C(Nc1ccn(S(=O)(=O)c2ccccc2OC(F)(F)F)c1)c1ccccn1 [Example 7] | 90% | 203 nM | – | – |
| O=C(Nc1ccn(S(=O)(=O)c2ccc(OC(F)F)cc2)c1)c1ccccn1 [Example 16] | 151% | 162 nM | – | – |
| O=C(Nc1ccn(S(=O)(=O)c2ccc(Cl)cc2)c1)c1ccccn1 [Example 21] | 215% | 655 nM | – | – |
| Cc1cccc(S(=O)(=O)n2ccc(NC(=O)c3ccccn3)c2)c1 [Example 15] | 175% | 90 nM | – | – |
| Cc1ccc(CS(=O)(=O)n2ccc(NC(=O)c3ccccn3)c2)cc1C [Example 33] | 178% | 215 nM | – | – |
| O=C(Nc1ccn(S(=O)(=O)Cc2ccccc2Cl)c1)c1ccccn1 [Example 30] | 163% | 83 nM | – | – |
| O=C(Nc1ccn(S(=O)(=O)Cc2cccc(Cl)c2)c1)c1ccccn1 [Example 25] | 132% | 839 nM | – | – |

The next lines start with the values.

| % Glu Max (mGluR4 [1]; maximum extent of potentiation) | EC50 (mGluR4 [1]) | EC50 (mGluR4 [2]) | Emax (mGluR4 [1]; maximum extent of potentiation, read-out: % Glu Max) | Structure (SMILES) |
| --- | --- | --- | --- | --- |
| – | – | 348 nM | – | Cc1ccc(S(=O)(=O)n2ccc(NC(=O)c3nccs3)c2)cc1 [Example 51, N-(1-tosyl-1H-pyrrol-3-yl)thiazole-2-carboxamidc] |
| – | – | 396 nM | – | CC(c1ccccc1F)S(=O)(=O)n1ccc(NC(=O)c2ccccn2)c1 (stereo not shown) [Example 99, N-(1-((1-(2-fluorophenyl)ethyl)sulfonyl)-1H-pyrrol-3-yl)picolinamidc] |
| 206% | 445 nM | – | – | O=C(Nc1ccn(S(=O)(=O)Cc2ccc(Cl)cc2Cl)c1)c1ccccn1 [Example 31] |
| – | – | 666 nM | – | O=C(Nc1ccn(S(=O)(=O)c2ccc(C(F)(F)F)nc2)c1)c1ccccn1 [Example 120, N-(1-((6-(trifluoromethyl)pyricIin-3-yl)sulfonyl)-1H-pyrrol-3-yl)picolinamide] |
| 159% | 188 nM | – | – | O=C(Nc1ccn(S(=O)(=O)Cc2ccc(F)cc2F)c1)c1ccccn1 [Example 32] |
| – | – | 249 nM | – | Cc1cc(S(=O)(=O)n2ccc(NC(=O)c3ccccn3)c2)cnc1Cl [Example 119, N-(1-((6-chloro-5-metliylpyridin-3-yl)sulfonyl)-1H-pyrrol-3-yl)picolinamide] |
| 158% | 154 nM | – | – | O=C(Nc1ccn(S(=O)(=O)Cc2ccc(C(F)(F)F)cc2)c1)c1ccccn1 [Example 37] |
| – | – | 854 nM | – | Cc1ccc(S(=O)(=O)n2ccc(NC(=O)c3ccco3)c2)cc1 [Example 165, N-(1-tosyl-1H-pyrrol-3-yl)furan-2-carboxamidc] |
| 161% | 473 nM | – | – | O=C(Nc1ccn(S(=O)(=O)Cc2ccccc2F)c1)c1ccccn1 [Example 29] |
| – | – | 1290 nM | – | Cc1ccnc(S(=O)(=O)n2ccc(NC(=O)c3ccccn3)c2)c1 [Example 117, N-(1-((4-mcthylpyridin-2-yl)sulfonyl)-1H-pyrrol-3-yl)picolinamide] |
| – | – | 256 nM | – | Cc1ccc(S(=O)(=O)n2ccc(NC(=O)c3ccccn3)c2)o1 [Example 142, N-(1-((5-methylruran-2-yl)sulfonyl)-1H-pyrrol-3-yl)picolinamide] |
| 117% | 1730 nM | – | – | O=C(Nc1ccn(S(=O)(=O)Cc2cccc(C(F)(F)F)c2)c1)c1ccccn1 [Example 27] |
| – | – | – | 85% | O=C(Nc1ccn(S(=O)(=O)c2ccccc2Cl)c1)c1ccccc1 [Example 46, N-(1-(2-chlorophenylsulfonyl)-1H-pyrrol-3-yl)benzamide] |
| 159% | 828 nM | – | – | O=C(Nc1ccn(S(=O)(=O)Cc2ccc(Cl)c(Cl)c2)c1)c1ccccn1 [Example 34] |

— patent US20130338154A1, “MGLUR4 ALLOSTERIC POTENTIATORS, COMPOSITIONS, AND METHODS OF TREATING NEUROLOGICAL DYSFUNCTION” (Vanderbilt University, priority 2009, published 2013)
